In patent publication US8058295B2, “Cystic fibrosis transmembrane conductance regulator protein inhibitors and uses thereof” (The Regents of the University of California, priority 2002, dated 2011):

Test system: STa toxin-induced fluid secretion
Parameters: species or system rats
Conditions: rat, in vivo

O=C(O)c1ccc(/C=C2\SC(=S)N(c3cccc(C(F)(F)F)c3)C2=O)cc1 [CFTRinh-172, 3-[(3-trifluoromethyl)phenyl]-5-[(4-carboxyphenyl)methylene]-2-thioxo-4-thiazolidinone]
inhibition of intestinal fluid secretion: ~75%
